Key:
[1] = 7-day repeated-dose TK in dogs; format: in vivo; details: beagle, dog, plasma, po
Description: The TK of ZB716 was investigated following once-daily administration via oral gavage for 7 consecutive days. Beagle dogs (n = 1/sex) were orally administered ZB716 at dose levels of 100 and 200 mg/kg/day.
The TK of ZB716 was investigated following once-daily administration via oral gavage for 7 consecutive days. The Cmax and AUClast values of ZB716 increased with dose in a greater than dose-proportional manner. However, the exposure in the female given 100 mg/kg/day was higher than that in the female given 200 mg/kg/day on days 1 and 7 (Figure 3). During the study, females had higher exposure at 100 mg/kg/day, and males had higher exposure at 200 mg/kg/day.
Four-to-six-week-old Sprague Dawley rats (Crl: CD (SD)) (SPF/VAF) were purchased from Beijing Vital River Laboratory Animal Technology, Co. Ltd.). Six-month-old beagle dogs were purchased from Beijing Marshall Biotechnology Co. Ltd. Animals were quarantined/acclimated for 2–6 weeks prior to dose initiation. Both Sprague Dawley rats and beagle dogs were given oral administration of ZB716 (20% PG, 5% Solutol, and 75% of 40% HP-β-CD in water) at different dose levels. After treatment with the test articles, whole blood was collected from each study animal by puncture of the tail vein (0.4 mL of whole blood from rats) and/or the peripheral vein (0.6 mL of whole blood from dogs) into tubes containing K2EDTA at each timepoint: pre-dose, and 0.5, 1, 2, 4, 8, and 24 h post-dose. The plasma samples were divided into 2 aliquots (approximately equal in volume) and stored frozen at −75 ± 15 °C within 2 h of the collection until analysis at Pharmaron, China.
The stock solution of ZB716 (5.0 mg/mL) and ZB716-d6 (1 mg/mL) in ACN:DI Water = 1:1 was prepared and stored at −20 ± 5 °C. The desired serial concentrations of working reference analyte solutions were achieved by diluting a stock analyte solution with 50% acetonitrile (0.1% formic acid) in water solution. The bioanalytical LC–MS/MS method was validated for quantitative determination of ZB716 in Sprague Dawley rat plasma and beagle dog plasma, with acceptable selectivity, sensitivity, calibration curve, precision, and accuracy. This method is applicable for the determination of ZB716 in Sprague Dawley rat plasma and beagle dog plasma, with a lower limit of quantification of 20.0 ng/mL, and an upper limit of quantification of 10,000 ng/mL.
Five microliters of diluted supernatant was injected into the LC–MS/MS system (Shimadzu LC30AD HPLC system with a SynergiTM 4 μm Fusion-RP 80 Å (50 × 2 mm) column using gradient elution and a Triple Quad 5500 mass spectrometer) for quantitative analysis. The mobile phases used were 0.1% formic acid in deionized water and 0.1% formic acid in acetonitrile. The pharmacokinetic parameters T1/2 (the biological half-life), Cmax (maximal concentration), Tmax (time at which Cmax is observed), and AUC (area under the plasma concentration–time curve) were calculated from the plasma concentration versus time data using WinNonlin (Phoenix^TM, version 8.1, Mountain View, CA, USA). All PK studies were conducted by Pharmaron in Beijing, China.

[2] = Plasma protein binding by equilibrium dialysis, monkey; format: in vitro ADME; details: plasma (EDTA-K2 as anticoagulant)
Description: (§1) The in vitro binding of ZB716 to plasma proteins was determined by equilibrium dialysis technique in mouse, rat, dog, monkey, and human plasma (EDTA-K2 as anticoagulant), over the concentration range of 0.1–10 μM. The free concentration of ZB716 was below the lower limit of quantitation at 0.1, 1, and 10 μM in human, monkey, dog, rat, and mouse plasma.
(§2) The equilibrium dialysis method was used to investigate the in vitro binding of ZB716 to human, monkey, dog, rat, and mouse plasma proteins. The dialysis phosphate buffer solution (100 mM, pH 7.4) and plasma samples containing 0.1, 1, and 10 μM of ZB716 were added to separate chambers of dialysis wells of the HTDialysis device. The dialysis plate was placed in an incubator at 37 °C with 5% CO2 at approximately 100 rpm for 6 h. After incubation, the seal was removed, and 50 μL each of post-dialysis samples was pipetted from both the buffer and plasma chambers into fresh 96-well plates. The samples were analyzed via UPLC–MS/MS. The bound fraction, unbound fraction, recovery (%), and remaining (%) were calculated by Equations (2)–(5):%Unbound = (Conc.buffer chamber/Conc.plasma chamber) × 100(2) %Bound = 100% − %Unbound (3) %Recovery = (Conc.buffer chamber + Conc.plasma chamber)/Conc.Total sample × 100 (4) %Remaining = Conc.6h/Conc.0h × 100 (5)

[3] = system: monkey plasma proteins; experiment: as above; format: in vitro ADME; details: for Remaining: 6 h
Description: as §1, §2

[4] = system: CYP3A4; experiment: CYP induction (enzyme activity) in cryopreserved human hepatocytes, CYP3A4; format: in vitro ADME; details: for fold induction at 72 h, 0.15 µM / fold induction at 72 h, 1.5 µM / fold induction at 72 h, 5 µM / fold induction at 72 h, 15 µM: human, plated cryopreserved human hepatocytes
[5] = female, 100 mg/kg/day, day 1, PO 100 mg/kg/day, F
[6] = female, 100 mg/kg/day, day 7, PO 100 mg/kg/day, F
[7] = female, 200 mg/kg/day, day 1, PO 200 mg/kg/day, F
[8] = female, 200 mg/kg/day, day 7, PO 200 mg/kg/day, F
[9] = male, 100 mg/kg/day, day 1, PO 100 mg/kg/day, M
[10] = male, 100 mg/kg/day, day 7, PO 100 mg/kg/day, M
[11] = male, 200 mg/kg/day, day 1, PO 200 mg/kg/day, M
[12] = male, 200 mg/kg/day, day 7, PO 200 mg/kg/day, M

C[C@]12CC[C@@H]3c4ccc(B(O)O)cc4C[C@@H](CCCCCCCCC[S+]([O-])CCCC(F)(F)C(F)(F)F)[C@H]3[C@@H]1CC[C@@H]2O (stereo partly shown) [ZB716, fulvestrant-3-boronic acid]
Tmax at 7 days ([1]; both sexes, 200 mg/kg/day, 7-day repeat oral administration, 100 and 200 mg/kg/day, mostly): 0.5 to 2 h
AUC(0-t) [1, 5]: 55600 ng·h/mL
Cmax [1, 5]: 7210 ng/mL
Tmax [1, 5]: 2 h
AUC(0-t) [1, 6]: 81100 ng·h/mL
Cmax [1, 6]: 12300 ng/mL
Tmax [1, 6]: 4 h
AUC(0-t) [1, 7]: 9780 ng·h/mL
Cmax [1, 7]: 1740 ng/mL
Tmax [1, 7]: 1 h
AUC(0-t) [1, 8]: 46700 ng·h/mL
Cmax [1, 8]: 8420 ng/mL
Tmax [1, 8]: 2 h
AUC(0-t) [1, 9]: 5070 ng·h/mL
Cmax [1, 9]: 1350 ng/mL
Tmax [1, 9]: 1 h
AUC(0-t) [1, 10]: 17800 ng·h/mL
Cmax [1, 10]: 3430 ng/mL
Tmax [1, 10]: 1 h
AUC(0-t) [1, 11]: 52200 ng·h/mL
Cmax [1, 11]: 8430 ng/mL
Tmax [1, 11]: 2 h
AUC(0-t) [1, 12]: 103000 ng·h/mL
Cmax [1, 12]: 18300 ng/mL
Tmax [1, 12]: 2 h
recovery at 6 h, 0.1 μM ([2]; pH 7.4, 0.1 μM): < 68.2%
recovery at 6 h, 1 μM ([2]; pH 7.4, 1 μM): < 70%
recovery at 6 h, 10 μM ([2]; pH 7.4, 10 μM): < 87.2%
Bound ([3]; 0.1 μM): >96.4%
Unbound ([3]; 0.1 μM): <3.63%
Remaining ([3]; 0.1 μM): 65.3 ± 2.8%
Bound ([3]; 1 μM): >99.6%
Unbound ([3]; 1 μM): <0.326%
Remaining ([3]; 1 μM): 70.9 ± 4.8%
Bound ([3]; 10 μM): >99.97%
Unbound ([3]; 10 μM): <0.0308%
Remaining ([3]; 10 μM): 93.9 ± 10.0%
Percent of Control ([4]; donor one, 0.15 µM): −4.55%
Percent of Control ([4]; donor one, 1.5 µM): −7.08%
Percent of Control ([4]; donor one, 5 µM): 4.85%
Percent of Control ([4]; donor one, 15 µM): 9.95%
Percent of Control ([4]; donor three, 0.15 µM): −5.29%
Percent of Control ([4]; donor three, 1.5 µM): −2.34%
Percent of Control ([4]; donor three, 5 µM): −6.62%
Percent of Control ([4]; donor three, 15 µM): −9.26%
Percent of Control ([4]; donor two, 0.15 µM): −2.26%
Percent of Control ([4]; donor two, 1.5 µM): 4.83%
Percent of Control ([4]; donor two, 5 µM): 22.4%
Percent of Control ([4]; donor two, 15 µM): 21.5%
fold induction at 72 h, 0.15 µM ([4]; donor one, 0.15 µM): 0.774 ± 0.078
fold induction at 72 h, 1.5 µM ([4]; donor one, 1.5 µM): 0.649 ± 0.085
fold induction at 72 h, 5 µM ([4]; donor one, 5 µM): 1.24 ± 0.18
fold induction at 72 h, 15 µM ([4]; donor one, 15 µM): 1.49 ± 0.21
fold induction at 72 h, 0.15 µM ([4]; donor three, 0.15 µM): 0.61 ± 0.043
fold induction at 72 h, 1.5 µM ([4]; donor three, 1.5 µM): 0.828 ± 0.082
fold induction at 72 h, 5 µM ([4]; donor three, 5 µM): 0.513 ± 0.081
fold induction at 72 h, 15 µM ([4]; donor three, 15 µM): 0.318 ± 0.005
fold induction at 72 h, 0.15 µM ([4]; donor two, 0.15 µM): 0.797 ± 0.1
fold induction at 72 h, 1.5 µM ([4]; donor two, 1.5 µM): 1.43 ± 0.14
fold induction at 72 h, 5 µM ([4]; donor two, 5 µM): 3.01 ± 0.33
fold induction at 72 h, 15 µM ([4]; donor two, 15 µM): 2.92 ± 0.25

Reference: PMC8400955 (Pharmaceuticals, 2021)
